Assay results taken from ChEMBL document CHEMBL1781923, “Synthesis and anti-tumor evaluation of panaxadiol derivatives” (Eur J Med Chem, 2011).

Tests used:
A549 [1] = test: Cytotoxicity against human A549 cells assessed as cell viability at 100 uM after 48 hrs by MTT assay; format: functional; details: A549, 48 h, read-out: Activity
[2] = Cytotoxicity against human ES2 cells after 48 hrs by MTT assay; format: functional, cell-based; details: ES-2, 48 h
[3] = Cytotoxicity against human ES2 cells assessed as cell viability at 50 uM after 48 hrs by MTT assay; format: functional; details: ES-2, 48 h, read-out: Activity
U2OS [4] = test: Cytotoxicity against human U2OS cells after 48 hrs by MTT assay; format: functional, cell-based
HepG2 [5] = test: Cytotoxicity against human HepG2 cells assessed as cell viability at 25 uM after 48 hrs by MTT assay; format: functional; details: HepG2, 48 h, read-out: Activity
[6] = Cytotoxicity against human ES2 cells assessed as cell viability at 25 uM after 48 hrs by MTT assay; format: functional; details: ES-2, 48 h, read-out: Activity
HepG2 [7] = test: Cytotoxicity against human HepG2 cells after 48 hrs by MTT assay; format: functional, cell-based; details: HepG2, 48 h
A549 [8] = test: Cytotoxicity against human A549 cells assessed as cell viability at 50 uM after 48 hrs by MTT assay; format: functional; details: A549, 48 h, read-out: Activity
A549 [9] = test: Cytotoxicity against human A549 cells after 48 hrs by MTT assay; format: functional, cell-based; details: A549, 48 h
U2OS [10] = test: Cytotoxicity against human U2OS cells assessed as cell viability at 50 uM after 48 hrs by MTT assay; format: functional; details: read-out: Activity
U2OS [11] = test: Cytotoxicity against human U2OS cells assessed as cell viability at 25 uM after 48 hrs by MTT assay; format: functional; details: read-out: Activity
HepG2 [12] = test: Cytotoxicity against human HepG2 cells assessed as cell viability at 50 uM after 48 hrs by MTT assay; format: functional; details: HepG2, 48 h, read-out: Activity

Row | Structure (SMILES) | viability at 100 µM (A549 [1]) [%] | IC50 [2] [µM] | viability at 50 µM [3] [%] | IC50 (U2OS [4]) [µM] | viability at 25 µM (HepG2 [5]) [%] | viability at 25 µM [6] [%] | IC50 (HepG2 [7]) [µM] | viability at 50 µM (A549 [8]) [%] | IC50 (A549 [9]) [µM] | viability at 50 µM (U2OS [10]) [%] | viability at 25 µM (U2OS [11]) [%] | viability at 50 µM (HepG2 [12]) [%]
1 | CC(C)=CCC[C@@](C)(O)[C@H]1CC[C@]2(C)[C@@H]1[C@H](O)C[C@@H]1[C@@]3(C)CC[C@H](O[C@@H]4O[C@H](CO)[C@@H](O)[C@H](O)[C@H]4O[C@@H]4O[C@H](CO)[C@@H](O)[C@H](O)[C@H]4O)C(C)(C)[C@@H]3CC[C@]12C | 71.1 | > 100 | 74.5 | > 100 | 81.3 | 82 | > 100 | 75.6 | > 100 | 81.3 | 72.2 | 76.2
2 | C=CC(=O)O[C@H]1CC[C@]2(C)[C@H]3C[C@@H](O)[C@@H]4[C@@H]([C@@]5(C)CCCC(C)(C)O5)CC[C@@]4(C)[C@]3(C)CC[C@H]2C1(C)C | – | 8.02 | – | 20.8 | – | – | > 50 | – | > 50 | – | – | –
3 | C/C=C(\C)C(=O)O[C@H]1CC[C@]2(C)[C@H]3C[C@@H](O)[C@@H]4[C@@H]([C@@]5(C)CCCC(C)(C)O5)CC[C@@]4(C)[C@]3(C)CC[C@H]2C1(C)C | – | 4.26 | – | 14.7 | – | – | > 50 | – | > 50 | – | – | –
4 | C=CCCC(=O)O[C@H]1CC[C@]2(C)[C@H]3C[C@@H](O)[C@@H]4[C@@H]([C@@]5(C)CCCC(C)(C)O5)CC[C@@]4(C)[C@]3(C)CC[C@H]2C1(C)C | – | 11.8 | – | 39 | – | – | > 50 | – | > 50 | – | – | –
5 | C/C=C/C=C/C(=O)O[C@H]1CC[C@]2(C)[C@H]3C[C@@H](O)[C@@H]4[C@@H]([C@@]5(C)CCCC(C)(C)O5)CC[C@@]4(C)[C@]3(C)CC[C@H]2C1(C)C | – | 13.7 | – | 43.3 | – | – | > 50 | – | > 50 | – | – | –
6 | CC/C=C(\C)C(=O)O[C@H]1CC[C@]2(C)[C@H]3C[C@@H](O)[C@@H]4[C@@H]([C@@]5(C)CCCC(C)(C)O5)CC[C@@]4(C)[C@]3(C)CC[C@H]2C1(C)C | – | 24.2 | – | 38 | – | – | > 50 | – | > 50 | – | – | –
7 | CCC/C=C/C(=O)O[C@H]1CC[C@]2(C)[C@H]3C[C@@H](O)[C@@H]4[C@@H]([C@@]5(C)CCCC(C)(C)O5)CC[C@@]4(C)[C@]3(C)CC[C@H]2C1(C)C | – | 13.7 | – | 43.9 | – | – | > 50 | – | > 50 | – | – | –
8 | C=CCCCCCCCCC(=O)O[C@H]1CC[C@]2(C)[C@H]3C[C@@H](O)[C@@H]4[C@@H]([C@@]5(C)CCCC(C)(C)O5)CC[C@@]4(C)[C@]3(C)CC[C@H]2C1(C)C | – | 19.4 | – | 31.6 | – | – | > 50 | – | > 50 | – | – | –
9 | CCCCC/C=C/C/C=C/CCCCCCCC(=O)O[C@H]1CC[C@]2(C)[C@H]3C[C@@H](O)[C@@H]4[C@@H]([C@@]5(C)CCCC(C)(C)O5)CC[C@@]4(C)[C@]3(C)CC[C@H]2C1(C)C | – | 17.9 | – | 32.1 | – | – | > 50 | – | > 50 | – | – | –
10 | CCCCCCCC/C=C/CCCCCCCC(=O)O[C@H]1CC[C@]2(C)[C@H]3C[C@@H](O)[C@@H]4[C@@H]([C@@]5(C)CCCC(C)(C)O5)CC[C@@]4(C)[C@]3(C)CC[C@H]2C1(C)C | – | 20.9 | – | 16.6 | – | – | > 50 | – | > 50 | – | – | –
11 | CCCCCCCC/C=C/CCCCCCCCCCCC(=O)O[C@H]1CC[C@]2(C)[C@H]3C[C@@H](O)[C@@H]4[C@@H]([C@@]5(C)CCCC(C)(C)O5)CC[C@@]4(C)[C@]3(C)CC[C@H]2C1(C)C | – | 14.8 | – | 40.5 | – | – | > 50 | – | > 50 | – | – | –
12 | CC1(C)CCC[C@](C)([C@H]2CC[C@]3(C)[C@@H]2[C@H](O)C[C@@H]2[C@@]4(C)CC[C@H](OC(=O)CN)C(C)(C)[C@@H]4CC[C@]23C)O1 | 13.5 | 9.9 | 6.66 | 13.7 | 10.3 | 7.51 | 11.3 | 18.7 | 14 | 12 | 13 | 10
13 | CC(C)C(N)C(=O)O[C@H]1CC[C@]2(C)[C@H]3C[C@@H](O)[C@@H]4[C@@H]([C@@]5(C)CCCC(C)(C)O5)CC[C@@]4(C)[C@]3(C)CC[C@H]2C1(C)C (stereo partly specified) | 15.4 | 16.2 | 6.47 | 17.3 | 26.4 | 14.6 | 9.29 | 21.2 | 31.8 | 13.7 | 16.4 | 11.7
14 | CC(C)CC(N)C(=O)O[C@H]1CC[C@]2(C)[C@H]3C[C@@H](O)[C@@H]4[C@@H]([C@@]5(C)CCCC(C)(C)O5)CC[C@@]4(C)[C@]3(C)CC[C@H]2C1(C)C (stereo partly specified) | 10.5 | 17.9 | 6.91 | 18 | 28.1 | 10.8 | 5.03 | 18.1 | 24.9 | 14.3 | 18.1 | 15.3
15 | CSCCC(N)C(=O)O[C@H]1CC[C@]2(C)[C@H]3C[C@@H](O)[C@@H]4[C@@H]([C@@]5(C)CCCC(C)(C)O5)CC[C@@]4(C)[C@]3(C)CC[C@H]2C1(C)C (stereo partly specified) | 12.7 | 13.1 | 6.4 | 16.8 | 28.4 | 13 | 11.8 | 21.6 | 22.4 | 11.6 | 18.4 | 8.56
16 | CC1(C)CCC[C@](C)([C@H]2CC[C@]3(C)[C@@H]2[C@H](O)C[C@@H]2[C@@]4(C)CC[C@H](OC(=O)C(N)Cc5ccccc5)C(C)(C)[C@@H]4CC[C@]23C)O1 (stereo partly specified) | 15.2 | 15.2 | 8.58 | 16.4 | 9.95 | 10.3 | 8.82 | 20.5 | 18.6 | 10.9 | 15 | 8.82
17 | CC1(C)CCC[C@](C)([C@H]2CC[C@]3(C)[C@@H]2[C@H](O)C[C@@H]2[C@@]4(C)CC[C@H](OC(=O)C5CCCN5)C(C)(C)[C@@H]4CC[C@]23C)O1 (stereo partly specified) | 14.1 | 16.7 | 6.04 | 14.4 | 5.72 | 10.4 | 8.91 | 19.5 | 7.63 | 8.72 | 12.4 | 6.39
18 | CC1(C)CCC[C@](C)([C@H]2CC[C@]3(C)[C@@H]2[C@H](O)C[C@@H]2[C@@]4(C)CC[C@H](O)C(C)(C)[C@@H]4CC[C@]23C)O1 [PANAXADIOL] | 24.5 | 5.61 | 12.4 | 26.8 | 69 | 18.8 | 37.9 | 36 | 43.1 | 25.7 | 53.4 | 37.7
